Experimental data published in patent US20080287377A1, “Composition Based on Triethyl Citrate for the Prevention of Enzymatic Hydrolysis of Triglycerides” (priority 2005, published 2008).
Where a name gives a salt, the structure may show the parent alone.

Molecular target: T1, porcine lipase (Sus scrofa, UniProt P00591)
T1 sequence (P00591 1-450): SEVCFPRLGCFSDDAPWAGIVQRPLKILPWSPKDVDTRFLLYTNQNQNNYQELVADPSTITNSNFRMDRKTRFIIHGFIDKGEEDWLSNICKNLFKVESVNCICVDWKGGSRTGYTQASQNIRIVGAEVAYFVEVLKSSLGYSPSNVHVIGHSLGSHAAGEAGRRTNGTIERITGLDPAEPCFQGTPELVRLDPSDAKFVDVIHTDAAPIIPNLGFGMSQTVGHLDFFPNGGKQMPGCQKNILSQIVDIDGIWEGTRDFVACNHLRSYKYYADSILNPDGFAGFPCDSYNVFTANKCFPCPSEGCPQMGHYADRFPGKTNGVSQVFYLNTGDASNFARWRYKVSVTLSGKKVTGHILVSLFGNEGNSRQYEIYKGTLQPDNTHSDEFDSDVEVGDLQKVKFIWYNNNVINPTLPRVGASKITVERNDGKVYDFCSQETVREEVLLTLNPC
Assay: Inhibition of the lyses of triglycerides (olive oil) by porcine lipase, colorimetric test of released fatty acids
Type: biochemical
Details: for Absorbance Mean: 37° C., read at 546 nm
Description: The inhibition of the lyses of triglycerides in the presence of porcine lipase was evaluated by analysing the released fatty acids using a colorimetric test.
The test consists in two distinct phases, one enzymatic reaction test which enables the lyses of triglycerides to leave the olive oil in the presence of porcine lipase and, successively, a colorimetric essay to determine the released fatty acids formed.
The porcine lipase, in the presence of the substrata (olive oil) and in opportune incubation conditions, catalyzes the following reaction:
Triglycerides+H2O→Diglycerides+Fatty acids
The dose of fatty acids allows indirect evaluation of the enzymatic activity and the lyses of triglycerides.
To evacuate the inhibition activity of the substance being analysed, three different concentrations of the substance under examination (5%, 1% and 0.5% in water) were tested at two different times (15 and 30 minutes).
In order to allow complete solubility, the 5% concentration was left at room temperature for 72 hours.
The porcine lipase was dissolved in deionised water at 4° C. just before use at the concentrations of 2000 U/ml. As a source of triglycerides olive oil was used. The buffer used for the reaction is Tris HCl 200 mM, pH=7.7 at 37° C. The test was conducted in the presence and in the absence of substance to be tested at different concentrations.
The following reagents are incubated at 37° C.: deionised water (150 μL), buffer (100 μL), olive oil (300 μL).
In the case of the sample (TEC 5%, 1% and 0.5%), the water was substituted with 150 μL of the solution to be tested.
Subsequent, the enzymatic solution (200 μL) was added and the reaction was allowed to develop for 30 and 15 minutes at a temperature of 37° C. On termination of the 15 and 30 minute periods, the reaction was blocked by adding 300 μL of ethanol at 95%.
50 μL of the solution containing the released fatty acids formed are used for the calorimetric dose, carried out using the special kit, that provides the necessary reagents to develop the reaction described below.
In the presence of the Acyl-CoA enzyme synthesis (AcylCS) and adenosin-5′-triphosphate (ATP) the released fatty acids are converted into acyl-CoA, adenosin-5′-monophosphate (AMP) and pyrophosphate. Acyl-CoA reacts with oxygen (O2) in the presence of Acyl coA oxidase (ACOD) forming 2,3-enoylcoenzymeA. The resulting H202 converts the 2,4,6-tribromo-3-hydroxy-benzoic acid (TBHB) and the 4-aminoantipyrine (4-AA) into a red stain in the presence of peroxidase (POD).
The samples are read at the 546 nm wave length, before and after the addition of ACOD and the reaction is conducted at room temperature.
Fatty acids+CoA+ATP→acyl-CoA+AMP+pyrophosphate
Acyl-CoA+O2→enoyl-coA+H202

[1] = TEC 0.5% in water, 15 min reaction
[2] = TEC 0.5% in water, 30 min reaction
[3] = TEC 1% in water, 15 min reaction
[4] = TEC 1% in water, 30 min reaction
[5] = TEC 5% in water, 15 min reaction
[6] = TEC 5% in water, 30 min reaction

CCOC(=O)CC(O)(CC(=O)OCC)C(=O)OCC [TEC, triethyl citrate]
fatty acids reduction compared to control (%) [1]: 18.04% | Absorbance Mean [1]: 0.584 | fatty acids reduction compared to control (%) [2]: 11.10% | Absorbance Mean [2]: 0.084 | fatty acids reduction compared to control (%) [3]: 17.12% | Absorbance Mean [3]: 0.5905 | fatty acids reduction compared to control (%) [4]: 12.70% | Absorbance Mean [4]: 0.083 | fatty acids reduction compared to control (%) [5]: 44.84% | Absorbance Mean [5]: 0.393 | fatty acids reduction compared to control (%) [6]: 81.50% | Absorbance Mean [6]: 0.018 | protection of the triglycerides from the enzymatic hydrolysis exercised by the lipases (maximum percentage according to the method followed, from the absorbance values): up to 85%
